# Laboratory results: patent US7183317B2, “Compounds and methods to increase plasma HDL cholesterol levels and improve HDL functionality” (Atherogenics, Inc., priority 2004, dated 2007)
# Several values for one entry are separate records, joined by “and”; a condition that tells them apart may be missing. Equal values may be shown once.
# Key:
# [1] = system: hypercholesterolemic hamsters; format: in vivo; settings: two weeks; for percent lowering of HDLc / percent increase of HDL cholesterol: compared to untreated controls; for percent increase of HDL cholesterol: 150 mg/kg/d in chow
# Excerpt: Male Golden Syrian hamsters weighing 110–120 g were obtained from Charles River Laboratories (Wilmington, Mass.). Hamsters were housed individually with wood chip bedding and soft nesting material with lights on a 6 A.M. and off at 6 p.m. Upon arrival the hamsters were acclimated for three days on standard rodent chow and water (Purina rodent chow 5001) ad libitum. Prior to dosing, the hamsters were made hypercholesterolemic by feeding them a powdered diet supplemented with 0.5% cholesterol and 10% coconut oil (Harlan Teklad diet #97235) for one week. Water was added to the powdered chow to form a paste and the chow paste rolled into balls with each animal receiving 20 g of chow paste per day in stainless steel bowls. Chow intake was recorded daily. Body weights were recorded after one week and at the end of the end of the study. Hamsters were distributed into treatment groups after the one-week pretreatment period such that each group had similar average body weights.
# Compound A homogenized in methylcellulose/Tween-20 using a polytron PT2100 homogenizer (Brinkman) before adding it to the high cholesterol chow paste and administered as an admixture at the same time each morning for two weeks. At the end of the treatment period the hamsters were fasted in the late afternoon on the day prior to blood collection. Fasting was achieved by transferring the hamsters to clean cages and removing chow stored in cheek pouches. Hamsters were anesthetized with ketamine/rompun solution. When unresponsive to toe pinch and still respiring, blood was collected via cardiac puncture from which plasma was separated and frozen at −80° C.
# Lipoproteins were isolated from whole plasma by Fast Phase Liquid Chromatography (FPLC). Cholesterol and triglyceride concentrations in the different lipoprotein fractions were determined by enzymatic methods using a CX-5 chemical analyzer and standard Beckman reagents.
# A Dunnetts test was used to compare the experimental and control groups. P<0.05 was considered significant.
# The effect of Compound A on HDLc levels was assessed using hypercholesterolemic hamsters. Male Golden Syrian hamsters were fed as described in Materials and Methods. Compound A homogenized as described above before adding it to the high cholesterol chow paste and administered as an admixture at the same time each morning for two weeks. At the end of the treatment period the hamsters were fasted in the late afternoon on the day prior to blood collection. Hamsters were anesthetized with ketamine/rompun solution. When unresponsive to toe pinch and still respiring, blood was collected via cardiac puncture from which plasma was separated and frozen at −80° C.
# LDL cholesterol was not affected. Lipid profiles were obtained according to the method published by Lee, A. and coworkers (W. Innis-Whitehouse, X. Li, V. Brown and N. Lee., J. Lipid Res. 39, 679 (1998)).
# HepG2 cells [2] = experiment: apoAI-HDL elevation cell-based screen (apoAI accumulation by ELISA); set-up: species or system human; settings: for increase of apoAI accumulation / circulating apoAI-HDL: 1 mM
# Experimental: HepG2 cells were obtained from the American Type Culture Collection (Rockville, Md.). Fetal bovine serum (FBS) was purchased from Gibco Laboratories. Cells were cultured in minimum essential medium (MEM) containing 10% FBS, and 100 μg/mL of streptomycin, 100 unit/mL of penicillin, and 4 mM of glutamine (Gibco/BRL). Cells were grown for 2 days till they are 80% confluent in 6-well, or 12-well plates before studies. In all cases medium was changed every other day.
# To measure apoAI, 96-well microtiter plates were coated with a 1:1000 diluted mixture of three monoclonal antibodies against human apoAI (A05, A17, and A44) for 2 h and incubated in succession with HDL3 (0 to 15 ng/well), sheep polyclonal anti-apoAI serum (Boehringer Mannheim), alkaline phosphatase-labeled rabbit anti-sheep (Cappel), and p-nitrophenyl phosphate (1 mg/mL in 10 mmol/L ethanolamine, 0.5 mmol/L MgCl2, pH 9.5), for 2, 1 and 1 h respectively at 37° C. The plates were washed three times between different incubations. The absorbance at 405 nm was determined by using a Bio-Rad model 550 microplate reader (Bio-Rad).
# The effect of Compound A on apoAI-HDL elevation was measured using a cell-based screen assay. The hepatic model, HepG2 cells, was used to observe the accumulation of apoAI as a result of secretion and/or uptake of apoAI; both processes taking place in the liver. HepG2 cells were treated with compounds for 24 hours or 48 hours in DMEM containing 1% RSA. apoAI accumulation was measured by ELISA as described in Materials and Methods.
# HepG2 cells [3] = experiment: Uptake/delivery of 3[H] cholesteryl ester-HDL to HepG2 cells; format: cell-based, human; settings: 12.5 μM, 50 μg/ml 3[H] CE-HDL, 3.5 h, 37° C., vs 100% delivery without compound
# Experimental: ^3[H]cholesteryl Hexadecyl Ether-labeled HDL was prepared as described by Rodrigueza et al. (Rodrigueza W. V. et al. (1999) J. Biol. Chem. 274:20344–20350). 40 μCi of ^3[H]hexadecyl ether (40–60 Ci/mmol, NEN life Sciences Products) were incubated with 5 mg of HDL3 and 240 mg of heat-inactivated lipoprotein-deficient plasma, 0.01% aprotinin in a polypropylene tube sealed with nitrogen gas for 40 h at 37° C. according to the method of Terpstra et al. ^3[H]-CE enriched HDL was re-isolated by flotation ultracentrifugation and dialyzed against phosphate-buffered saline (PBS). To perform CE uptake studies, HepG2 cells, seeded in 6 or 12 well plates were grown for 2 days till 80% confluent and, then treated with compounds in 1% RSA-DMEM medium for 24 h. The next day, cells were treated with 12.5 μM compounds and 50 μg/mL of ^3[H]-CE HDL for 3.5 h at 37° C. After incubation, cells were washed 4 times with PBS/BSA and 2 times with PBS, followed by addition of 0.1 N NAOH. Cells were collected, and radioactivity was measured in counts per minute and expressed as percent of ^3[H]-CE delivered to cells.
# HepG2 cells were cultured as described above and incubated with 50 μg/ml of ^3[H] CE-HDL particles and compounds for 3.5 h at 37° C. […] CE delivery to HepG2 cells resulting from treatment with indicated compounds compared to a 100% delivery in the absence of any compound. […] CE, as also described by Jin et al. (Jin, F. et al. (1997) Atheroscler. Thromb Vasc Biol. 17: 2020–2028).
# SR-BI/II receptors = experiment: 3[H] CE delivery to HepG2 cells with anti SR-BI/II antibody blocking; format: cell-based
# Experimental: It was important to discern whether or not Compound A was acting through the SR-BI/II receptors to increase the delivery of cholesterol. HepG2 cells were incubated with anti-mouse SR-BI/II antibodies for 45 min. Compound A was then added, and the cells were incubated with 30 μg/ml of ^3[H] CE-HDL for 3.5 h at 37° C. Anti-mouse SR-BI/II antibodies (1.0 mg/mL) reduced delivery of ^3[H] CE by 76%, while Compound A increase the delivery of ^3[H] CE to HepG2 cells by 56%. […] CE to cells provoked by Compound A. Further the anti SR-BI/II antibodies decreased the delivery of ^3[H] CE from 156% to 28% (FIG. 4).
# HDL holoprotein = experiment: Hepatic clearance/uptake of HDL holoprotein; format: cell-based
# Excerpt: The trichloroacetic-precipitable labeled apoAI-HDL in the conditioned medium represents degraded labeled apoAI-HDL. After washing and detaching, cells are centrifuged. Labeled apoAI-HDL in the cellular fraction represents internalized HDL holoprotein; whereas, label in the supernatant represents cell surface bound apoAI-HDL that has been dissociated. Increased amounts of labeled HDL in cells treated with compounds versus cells not treated with compounds indicates increased degradation, internalization, or binding to the cell surface. Compounds are selected which decrease the amount of apoAI-HDL label in the cellular fraction of the cells contacted with a test compound compared to the amount of label in the cellular fraction of the cells not contacted with the test compound. […] Label in the conditioned medium represents degraded labeled-HDL. After washing and detaching, cells are centrifuged. Label in the cellular fraction represents internalized HDL holoprotein; whereas, label in the supernatant represents cell surface bound apoAI-HDL that has been dissociated. Increased amounts of label in cells treated with compounds versus cells not treated with compounds indicates increased degradation, internalization, or binding of apoAI-HDL to the cell surface. […]
# apoAI = apoAI synthesis; format: cell-based
# [4] = 12.5 μM, compared to control (absence of compounds)
smiles,measurement,setting,value
CC(C)(Sc1cc(C(C)(C)C)c(O)c(C(C)(C)C)c1)Sc1cc(C(C)(C)C)c(OC[C@H]2OC(O)[C@H](O)[C@@H](O)[C@@H]2O)c(C(C)(C)C)c1 (some centres unmarked) [Compound D],percent lowering of HDLc,[1]; 150 mg/kg/d,~80%
same,percent decrease of apoAI (apoAI-HDL) accumulation,"HepG2 cells [2]; 12.5 μM, compared to control",about 10%
"CC(C)(Sc1cc(C(C)(C)C)c(O)c(C(C)(C)C)c1)Sc1cc(C(C)(C)C)c(OCCCCOS(=O)(=O)O)c(C(C)(C)C)c1 [B, Sulfuric acid, mono-(4-{2,6-di-tert-butyl-4-[1-(3,5-di-tert-butyl-4-hydroxy-phenyl-sulfanyl)-1-methylethylsulfanyl]-phenoxy}-butyl)ester]",percent increase of apoAI (apoAI-HDL) accumulation,HepG2 cells [2]; [4],~30%
"CC(C)(Sc1cc(C(C)(C)C)c(O)c(C(C)(C)C)c1)Sc1cc(C(C)(C)C)c(OC[C@@H](O)[C@@H](O)[C@@H](O)C(=O)O)c(C(C)(C)C)c1 [Compound A, 5-[4-[1-[(3,5-bis(1,1-dimethylethyl)-4-hydroxyphenyl)thio]-1-methylethyl]thio-2,6-bis(1,1-dimethylethyl)phenoxy]-2(R),3(R),4(R)-trihydroxypentanoic acid]",percent increase of HDL cholesterol,[1],30%
same,effect on LDL cholesterol,[1]; 150 mg/kg/d,not affected
same,percent increase of apoAI (apoAI-HDL) accumulation,HepG2 cells [2]; [4],122.5% and 122%
same,percent increase of apoAI (apoAI-HDL) accumulation,"HepG2 cells [2]; 25 μM, compared to control",132.5% and 132%
same,percent increase of 3[H]CE delivery to HepG2 cells,HepG2 cells [3],109% and 108%
same,percent increase of 3[H]CE delivery to HepG2 cells,"SR-BI/II receptors; 30 μg/ml 3[H] CE-HDL, 3.5 h, 37° C., no antibody",56%
same,"delivery of 3[H] CE, percent of control",SR-BI/II receptors; Compound A in presence of anti SR-BI/II antibodies,28%
same,"delivery of 3[H] CE, percent of control",SR-BI/II receptors; Compound A without antibodies,156%
CC(C)(Sc1cc(C(C)(C)C)c(O)c(C(C)(C)C)c1)Sc1cc(C(C)(C)C)c(OC[C@@H](O)[C@H](O)[C@H](O)[C@H](O)CO)c(C(C)(C)C)c1 [Compound E],percent lowering of HDLc,[1]; 150 mg/kg/d,~40%
same,percent decrease of apoAI (apoAI-HDL) accumulation,"HepG2 cells [2]; 12.5 μM, compared to control",about 10%
"CC1=C(/C=C/C(C)=C/C=C/C(C)=C/C(=O)O)C(C)(C)CCC1 [Retinoic acid, reference compound]",percent increase of apoAI accumulation,"HepG2 cells [2]; 10 μM, positive control",53.6%
"CC(C)(Sc1cc(C(C)(C)C)c(O)c(C(C)(C)C)c1)Sc1cc(C(C)(C)C)c(OCC(O)CNCC(=O)O)c(C(C)(C)C)c1 (centres unmarked) [Compound C, Glycine, N-[3-[4-[1-[[3,5-bis(1,1-dimethylethyl)-4-hydroxyphenyl]thio]-methylethyl]thio-2,6-bis(1,1-dimethylethyl)phenoxy]-2-hydroxypropyl]]",percent increase of HDL cholesterol,[1],40%
same,percent increase of apoAI (apoAI-HDL) accumulation,HepG2 cells [2]; [4],~15%
"O=C(O)c1cccnc1 [Niacin, Nicotinic acid, reference compound]",increase of apoAI accumulation / circulating apoAI-HDL,HepG2 cells [2],increased
same,increase of apoAI accumulation / circulating apoAI-HDL,HepG2 cells [2]; listed as niacin,10%
"CC(C)(Sc1cc(C(C)(C)C)c(O)c(C(C)(C)C)c1)Sc1cc(C(C)(C)C)c(O)c(C(C)(C)C)c1 [Probucol, 4,4′-(isopropylidenedithio)bis(2,6-di-tert-butylphenol), reference compound]",percent decrease of apoAI (apoAI-HDL) accumulation,"HepG2 cells [2]; 12.5 μM, compared to control",23%
same,percent increase of 3[H]CE delivery to HepG2 cells,HepG2 cells [3],29%
same,percent increase of 3[H]CE delivery to HepG2 cells,HepG2 cells [3]; listed as probucol,increased
same,HDL holoprotein uptake,HDL holoprotein,reduced
same,effect on synthesis of apoAI (newly synthesized apoAI),apoAI,reduced
